Where two headings read alike, the source gives them in different places.
Assays:
[1] = tested on: MOPr-VACC inhibition in dorsal root ganglia (DRG) neurons; assay: cells; type: cell-based, mouse; details: for IC50: read-out: IC50, VACC inhibition; for Emax: read-out: Emax (% inhibition), VACC inhibition
[2] = molecular target: MOPr (mMOR-Venus) / Gαi-luciferase (Mus musculus, UniProt P42866); assay: cell-based; type: cell-based
[3] = molecular target: MOPr (mMOR-Venus) / βarr2-luciferase (Mus musculus, UniProt P42866); assay: cell-based
[4] = molecular target: MOPr (mMOR-Venus) / βarr1-luciferase (Mus musculus, UniProt P42866); assay: cell-based; type: cell-based
MOPr = molecular target: T1, MOPr (Mus musculus, UniProt P42866); type: cell-based
T1 construct: expressed in transfected cells; host or cells: HEK293

[5] = molecular target: FAP-tagged MOPr in HEK cells (Homo sapiens, UniProt P35372); assay: cell-based; type: cell-based; details: for Emax: Emax (% background), internalization
[6] = tested on: MOPr-VACC inhibition in DRG neurons; type: cell-based, mouse
VACCs in DRG neurons = assay: Voltage-dependent component of agonist-VACC inhibition (high-voltage pre-pulse); type: cell-based, mouse; details: normalized to each agonist's inhibition
[7] = molecular target: T2, MOR (recombinant human receptor) (Homo sapiens, UniProt P35372); type: binding; details: calculated as t1/2 = 0.69/koff
T2 construct: host or cells: CHO-K1 membranes

[8] = tested on: VACCs in DRG neurons lacking βarr1; assay: VACC inhibition in DRG neurons of βarr1-knockout mice; type: cell-based, mouse; details: βarr1-knockout vs WT DRG neurons; NKTR-181 30 μM
[9] = tested on: carrageenan-induced thermal hyperalgesia; assay: Thermal withdrawal thresholds (Hargreaves) after i.pl. carrageenan; type: in vivo, mouse
thermal nociception = assay: Thermal withdrawal thresholds (Hargreaves) after i.pl. vehicle; type: in vivo, mouse; details: 3 mg/kg i.pl., mice
drug preference = assay: Conditioned place preference in pain-naive mice; type: in vivo, mouse
[10] = tested on: carrageenan-induced place aversion; assay: Carrageenan-induced conditioned place aversion; type: in vivo, mouse; details: 1 mg/kg i.pl., male mice
drug-seeking behavior = assay: Intravenous self-administration (IVSA), FR10 schedule; type: in vivo, Sprague–Dawley rats; details: for number of reinforcers obtained vs saline: FR10, rats
[11] = molecular target: Mu opioid receptor (MOPr) of the competitive binding assays (UniProt P42866)
[12] = molecular target: T3, mMOR-Venus (mu opioid receptor, Venus-tagged) (mouse (from the label mMOR), UniProt P42866 1-398); assay: FRET or BRET; live HEK293 cells co-transfected with mMOR-Venus (acceptor) and Renilla Luciferase8-tagged β-arrestin-1, β-arrestin-2 or Gαi (donor; Gαi with untagged Gβγ fusion); agonist added at 0 nM-100 μM (DAMGO, NKTR-181, oxycodone, morphine, fentanyl); coelenterazine h 4.5 μM; 30°C; netBRET as percent of the maximum DAMGO response, four-parameter fit; details: partners not purified
T3 construct: mu opioid receptor (MOPr), printed as mMOR; BRET acceptor; 'm' in mMOR is read as mouse; also called MOPr-venus; MOPr; source: HEK293, transfected (FuGENE 6), in live cells
T3 sequence (P42866 whole entry, the tested form may be a part): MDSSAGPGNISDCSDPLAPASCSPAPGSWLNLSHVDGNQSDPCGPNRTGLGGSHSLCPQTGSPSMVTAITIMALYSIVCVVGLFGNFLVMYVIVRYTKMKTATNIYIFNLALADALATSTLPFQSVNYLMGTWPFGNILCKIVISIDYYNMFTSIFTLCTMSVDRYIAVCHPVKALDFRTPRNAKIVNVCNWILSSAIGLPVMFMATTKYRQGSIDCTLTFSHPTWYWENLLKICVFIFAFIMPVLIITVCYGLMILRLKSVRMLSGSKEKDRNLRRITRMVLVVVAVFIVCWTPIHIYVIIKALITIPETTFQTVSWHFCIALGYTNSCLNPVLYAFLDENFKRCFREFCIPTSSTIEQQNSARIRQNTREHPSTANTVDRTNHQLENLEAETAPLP

Chain of MOPr (mMOR-Venus) / Gαi-luciferase (P63096 whole entry): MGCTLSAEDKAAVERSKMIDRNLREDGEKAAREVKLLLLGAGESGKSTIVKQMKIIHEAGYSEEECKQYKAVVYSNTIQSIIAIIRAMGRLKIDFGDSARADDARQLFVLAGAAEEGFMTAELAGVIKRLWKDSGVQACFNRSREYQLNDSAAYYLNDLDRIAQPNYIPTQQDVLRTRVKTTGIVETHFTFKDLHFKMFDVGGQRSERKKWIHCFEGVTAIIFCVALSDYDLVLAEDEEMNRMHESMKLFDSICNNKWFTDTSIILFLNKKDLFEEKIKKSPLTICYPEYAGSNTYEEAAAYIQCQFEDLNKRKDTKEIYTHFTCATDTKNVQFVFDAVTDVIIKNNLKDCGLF
Chain of MOPr (mMOR-Venus) / Gαi-luciferase (P42866 whole entry): as the sequence (P42866 whole entry, the tested form may be a part) above
Chain of MOPr (mMOR-Venus) / Gαi-luciferase (P59768 whole entry, further chain): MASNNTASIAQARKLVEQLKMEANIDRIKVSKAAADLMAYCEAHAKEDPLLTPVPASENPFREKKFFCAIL
Chain of MOPr (mMOR-Venus) / Gαi-luciferase (P62873 whole entry, further chain): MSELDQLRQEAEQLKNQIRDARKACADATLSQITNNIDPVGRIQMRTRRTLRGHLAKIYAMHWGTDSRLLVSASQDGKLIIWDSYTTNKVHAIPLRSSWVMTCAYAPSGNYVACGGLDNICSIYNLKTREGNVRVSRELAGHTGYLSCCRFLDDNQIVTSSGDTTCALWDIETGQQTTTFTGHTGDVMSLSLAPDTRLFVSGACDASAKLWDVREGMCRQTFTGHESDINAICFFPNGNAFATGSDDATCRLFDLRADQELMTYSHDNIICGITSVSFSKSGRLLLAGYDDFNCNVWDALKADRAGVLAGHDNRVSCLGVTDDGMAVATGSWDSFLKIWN
Chain of MOPr (mMOR-Venus) / βarr2-luciferase (P32121 whole entry): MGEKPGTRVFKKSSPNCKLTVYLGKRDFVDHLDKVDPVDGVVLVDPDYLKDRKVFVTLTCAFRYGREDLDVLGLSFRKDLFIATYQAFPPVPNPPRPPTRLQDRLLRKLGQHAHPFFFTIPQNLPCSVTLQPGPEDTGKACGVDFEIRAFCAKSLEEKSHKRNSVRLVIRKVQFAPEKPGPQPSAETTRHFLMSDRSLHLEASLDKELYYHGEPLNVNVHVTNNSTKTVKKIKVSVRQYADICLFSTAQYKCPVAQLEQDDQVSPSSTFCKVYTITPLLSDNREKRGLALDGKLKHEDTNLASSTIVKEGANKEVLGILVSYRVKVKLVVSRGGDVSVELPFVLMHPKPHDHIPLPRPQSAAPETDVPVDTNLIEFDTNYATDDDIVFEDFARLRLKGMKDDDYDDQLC
Chain of MOPr (mMOR-Venus) / βarr2-luciferase (P42866 whole entry): as the sequence (P42866 whole entry, the tested form may be a part) above
Chain of FAP-tagged MOPr in HEK cells (P35372 whole entry): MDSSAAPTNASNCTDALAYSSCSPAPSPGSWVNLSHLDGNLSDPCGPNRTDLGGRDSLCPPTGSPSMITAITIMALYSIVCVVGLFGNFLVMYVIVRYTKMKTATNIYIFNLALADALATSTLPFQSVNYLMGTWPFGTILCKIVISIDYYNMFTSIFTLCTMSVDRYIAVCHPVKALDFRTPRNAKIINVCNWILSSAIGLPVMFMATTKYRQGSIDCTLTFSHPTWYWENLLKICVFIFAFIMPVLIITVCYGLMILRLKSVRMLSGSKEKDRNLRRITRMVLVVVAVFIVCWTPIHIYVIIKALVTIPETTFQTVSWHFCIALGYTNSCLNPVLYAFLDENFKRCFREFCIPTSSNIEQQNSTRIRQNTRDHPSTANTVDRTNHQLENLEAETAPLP
Chain of MOPr (mMOR-Venus) / βarr1-luciferase (P42866 whole entry, one chain of several): as the sequence (P42866 whole entry, the tested form may be a part) above
T1 sequence (P42866 whole entry): as the sequence (P42866 whole entry, the tested form may be a part) above
Chain of Mu opioid receptor (MOPr) of the competitive binding assays (P42866 whole entry, the tested form may be a part): as above
T2 sequence (P35372 whole entry): as the sequence (P35372 whole entry) above

With C[C@@H](NC(=O)[C@@H](N)Cc1ccc(O)cc1)C(=O)NCC(=O)N(C)[C@@H](Cc1ccccc1)C(=O)NCCO [DAMGO, [D-Ala^2, N-MePhe^4, Gly-ol]-enkephalin] as the molecule, how does the “Emax (% inhibition), VACC inhibition” value [1] read?
Its value is 41 ± 4 % inhibition.

And the IC50 [1]?
Its IC50 is 228 nM.

And the “σ (transduction coefficient), Gαi recruitment” value [2]?
Its value is 0.

What about the “σ (transduction coefficient), β-arr2 recruitment” value [3] of the same molecule?
Its value is 0.

And the “σ (transduction coefficient), β-arr1 recruitment” value [4]?
Its value is 0.

And the “Bias factor Gαi vs βarr1” value (MOPr)?
The value was “Unbiased”.

And the “Bias factor Gαi vs βarr2” value (MOPr)?
Its value is “Unbiased”.

What about the “Bias factor βarr1 vs βarr2” value (MOPr) of the same molecule?
Its value is “Unbiased”.

And the Emax ([5]; HEK293, read-out: 30 min)?
Its Emax is 78 ± 6%.

And the Emax ([5]; HEK293, read-out: 60 min)?
Its Emax is 72 ± 7%.

And the “rapid desensitization (loss of VACC inhibition)” value [6]?
Its value is “greater desensitization than NKTR-181”.

And the “voltage-dependent component of VACC inhibition” value (VACCs in DRG neurons)?
Its value is “predominantly inhibit VACCs by a voltage-dependent mechanism”.

How did the Emax ([1]; Mus musculus, DRG neuron) turn out when CN1CC[C@]23c4c5ccc(O)c4O[C@H]2[C@@H](O)C=C[C@H]3[C@H]1C5 [Morphine, morphine] was run?
The Emax was 33 ± 6%.

What about the “rapid desensitization (loss of VACC inhibition)” value [6] of the same molecule?
Its value is “greater desensitization than NKTR-181”.

What about the “voltage-dependent component of VACC inhibition” value (VACCs in DRG neurons) of the same molecule?
The value was “predominantly inhibit VACCs by a voltage-dependent mechanism”.

COc1ccc2c3c1O[C@H]1C(=O)CC[C@@]4(O)[C@@H](C2)N(C)CC[C@]314 [Oxycodone, oxycodone] was tested. Which Emax ([1]; Mus musculus, DRG neuron) did it give?
Its Emax is 34 ± 10%.

What about the IC50 ([1]; Mus musculus, DRG neuron) of the same molecule?
The IC50 was 1700 nM.

And the EC50 [2]?
Its EC50 is 355 nM.

What about the “σ (transduction coefficient), Gαi recruitment” value [2] of the same molecule?
Its value is 0.006 ± 0.07.

And the Emax ([2]; HEK293, read-out: Emax, Gαi recruitment)?
The Emax was 62.5 ± 0.9%.

And the EC50 [3]?
The EC50 was 100 nM.

What about the “σ (transduction coefficient), β-arr2 recruitment” value [3] of the same molecule?
The value was −0.17 ± 0.05.

What about the EC50 [4] of the same molecule?
Its EC50 is 389 nM.

What about the “σ (transduction coefficient), β-arr1 recruitment” value [4] of the same molecule?
The value was 0.07 ± 0.05.

What about the Emax ([4]; HEK293, read-out: Emax, β-arr1 recruitment) of the same molecule?
The Emax was 63.9 ± 0.8%.

And the “Bias factor Gαi vs βarr1” value (MOPr)?
The value was −0.14 ± 0.07.

And the “Bias factor Gαi vs βarr2” value (MOPr)?
The value was 0.17 ± 0.08.

What about the “Bias factor βarr1 vs βarr2” value (MOPr) of the same molecule?
The value was 0.32 ± 0.06.

And the “MOPr internalization, dose-dependence and comparison” value [5]?
Its value is “did not result in a dose-dependent effect and could not be curve-fitted at any timepoint”.

What about the “dissociation half-life t1/2” value [7] of the same molecule?
The value was 1.25 min.

And the “rapid desensitization (loss of VACC inhibition)” value [6]?
The value was “limited desensitization”.

What about the “voltage-dependent component of VACC inhibition” value (VACCs in DRG neurons) of the same molecule?
The value was “predominantly inhibit VACCs by a voltage-dependent mechanism”.

And the “requirement of βarr1 for full VACC inhibition” value [8]?
The value was “require βarr1 to obtain full VACC inhibition”.

And the “reversal of carrageenan-induced hyperalgesia” value ([9]; 1 mg/kg i.pl., mice)?
The value was “did not reverse carrageenan-induced hyperalgesia”.

And the “thermal withdrawal thresholds following i.pl. carrageenan” value ([9]; 3 mg/kg i.pl., mice)?
Its value is “increased withdrawal thresholds following i.pl. carrageenan”.

And the “time to reach peak levels of effect” value ([9]; antinociception / anti-hyperalgesia, carrageenan model, 10 min was the earliest timepoint measured)?
The value was 10 min.

And the “sex difference in anti-hyperalgesia” value ([9]; higher dose (oxycodone 3 mg/kg, NKTR-181 100 mg/kg), male vs female mice)?
Its value is “No sex differences were evident”.

And the “thermal withdrawal thresholds following i.pl. vehicle” value (thermal nociception)?
The value was “increased withdrawal thresholds following i.pl. vehicle”.

And the conditioned place preference (drug preference; 1 mg/kg i.pl.)?
Its conditioned place preference is “did not produce a place preference in either male or female mice”.

And the conditioned place preference (drug preference; 3 mg/kg i.pl.)?
The conditioned place preference was “produced a place preference in both sexes”.

And the carrageenan-induced place aversion [10]?
Its carrageenan-induced place aversion is “prevented place aversion”.

And the “number of reinforcers obtained vs saline” value (drug-seeking behavior; 0.1 mg/kg/infusion)?
Its value is “no difference”.

What about the “number of reinforcers obtained vs saline” value (drug-seeking behavior; 0.01 and 0.032 mg/kg/infusion) of the same molecule?
Its value is “higher”.

What about the “total amount of drug infused over the hour-long session” value (drug-seeking behavior; across the three doses of each drug, rats) of the same molecule?
The value was “increase in the total amount of drug infused across all doses”.

“[D-Ala^2, N-MePhe^4, Gly-ol]-enkephalin (peptide)” was tested. Which Emax (% inhibition) of VACCs in cultured adult mouse DRG neurons, whole-cell patch clamp [11] did it give?
The Emax (% inhibition) of VACCs in cultured adult mouse DRG neurons, whole-cell patch clamp was 41 % inhibition.

And the IC50 of inhibition of voltage-activated calcium channel currents (VACCs) in cultured adult mouse DRG neurons, whole-cell patch clamp [11]?
Its IC50 of inhibition of voltage-activated calcium channel currents (VACCs) in cultured adult mouse DRG neurons, whole-cell patch clamp is 228 nM.

B1: β-arrestin-1-Renilla Luciferase8 (natural protein, UniProt P49407 1-418, looked up)
chain: MGDKGTRVFKKASPNGKLTVYLGKRDFVDHIDLVDPVDGVVLVDPEYLKERRVYVTLTCAFRYGREDLDVLGLTFRKDLFVANVQSFPPAPEDKKPLTRLQERLIKKLGEHAYPFTFEIPPNLPCSVTLQPGPEDTGKACGVDYEVKAFCAENLEEKIHKRNSVRLVIRKVQYAPERPGPQPTAETTRQFLMSDKPLHLEASLDKEIYYHGEPISVNVHVTNNTNKTVKKIKISVRQYADICLFNTAQYKCPVAMEEADDTVAPSSTFCKVYTLTPFLANNREKRGLALDGKLKHEDTNLASSTLLREGANREILGIIVSYKVKVKLVVSRGGLLGDLASSDVAVELPFTLMHPKPKEEPPHREVPENETPVDTNLIELDTNDDDIVFEDFARQRLKGMKDDKEEEEDGTGSPQLNNR
notes: β-arrestin-1; BRET donor; also called βarr1; β-arr1; source: HEK293, transfected (FuGENE 6), in live cells
How did the “LogEC50 of the agonist DAMGO for the recruitment” value [12] turn out when B1 was run?
The value was -6.94 ± 0.09 log M.

What about the “LogEC50 of the agonist NKTR-181 for the recruitment” value [12] of the same molecule?
The value was -6.45 ± 0.12 log M.

And the “LogEC50 of the agonist fentanyl for the recruitment” value [12]?
Its value is -8 ± 0.12 log M.

And the “LogEC50 of the agonist morphine for the recruitment” value [12]?
Its value is -6.3 ± 0.18 log M.

What about the “LogEC50 of the agonist oxycodone for the recruitment” value [12] of the same molecule?
Its value is -6.41 ± 0.12 log M.

From article PMC8915576 (Frontiers in Pain Research, 2021)
